From patent publication US10076519B2 (CYTOKINETICS, INC., priority 2010, dated 2018)

What follows are compounds tested on rabbit skeletal myofibrils (fast skeletal myofibrils) (assay: Activation of fast skeletal myofibrils (PUMA assay, PK/LDH-coupled ATPase at pCa25)). Settings: AC1.4 determined according to the procedure of Example 39; reported as class symbols.
Format: biochemical
How it was run: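 Detergent-washed rabbit psoas myofibrils (~90% fast fibres, calcium-regulated) assayed at calcium giving 25% of maximal ATPase rate (pCa25). ADP turnover coupled via pyruvate kinase/lactate dehydrogenase to NADH oxidation, read at 340 nm. Buffer 12 mM PIPES, 2 mM MgCl2, 1 mM DTT, pH 6.8; AC1.4 values derived.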

| Structure (SMILES) | Mean AC1.4 |
| --- | --- |
| C=Cc1n[nH]c2ccc(-c3ccc(NCC(C)(C)c4ccc(F)cc4)nn3)cc12 [[2-(4-fluorophenyl)-2-methylpropyl][6-(3-vinyl(1H-indazol-5-yl))pyridazin-3-yl]amine] | A (A=<1 uM) |
| CC(C)(CNc1ccc(-c2ccc(F)cc2)nn1)c1ccc(F)cc1 [[2-(4-fluorophenyl)-2-methylpropyl][6-(4-fluorophenyl)pyridazin-3-yl]amine] | B (B=1-10 uM) |
| COc1ccc(-c2ccc(NCC(C)(C)c3ccc(F)cc3)nn2)nc1 [[2-(4-fluorophenyl)-2-methylpropyl][6-(5-methoxy(2-pyridyl))pyridazin-3-yl]amine] | B (B=1-10 uM) |
| COc1cccc(-c2ccc(NCC(C)(C)c3ccc(F)cc3)nn2)n1 [[2-(4-fluorophenyl)-2-methylpropyl][6-(6-methoxy(2-pyridyl))pyridazin-3-yl]amine] | A (A=<1 uM) |
| CNc1n[nH]c2ccc(-c3ccc(NCC(C)(C)c4ccc(F)cc4)nn3)cc12 [[2-(4-fluorophenyl)-2-methylpropyl]{6-[3-(methylamino)(1H-indazol-5-yl)]pyridazin-3-yl}amine] | B (B=1-10 uM) |
| CC(C)(CNc1ccc(-c2cccc(C(=O)NCCO)c2)nn1)c1ccc(F)cc1 [[3-(6-{[2-(4-fluorophenyl)-2-methylpropyl]amino}pyridazin-3-yl)phenyl]-N-(2-hydroxyethyl)carboxamide] | B (B=1-10 uM) |
| CC(C)(CNc1ccc(-c2cccc(C(=O)NCCNC(=O)c3cccc(-c4ccc(NCC(C)(C)c5ccc(F)cc5)nn4)c3)c2)nn1)c1ccc(F)cc1 [[3-(6-{[2-(4-fluorophenyl)-2-methylpropyl]amino}pyridazin-3-yl)phenyl]-N-(2-{[3-(6-{[2-(4-fluorophenyl)-2-methylpropyl]amino}pyridazin-3-yl)phenyl]carbonylamino}eth-yl)carboxamide] | B (B=1-10 uM) |
| CNC(=O)c1cccc(-c2ccc(NCC(C)(C)c3ccc(F)cc3)nn2)c1 [[3-(6-{[2-(4-fluorophenyl)-2-methylpropyl]amino}pyridazin-3-yl)phenyl]-N-methylcarboxamide] | B (B=1-10 uM) |
| CC(C)(CNc1ccc(-c2cccc(CO)c2)nn1)c1ccc(F)cc1 [[3-(6-{[2-(4-fluorophenyl)-2-methylpropyl]amino}pyridazin-3-yl)phenyl]methan-1-ol] | B (B=1-10 uM) |
| CN(C)C(=O)n1nc(N)c2cc(-c3ccc(NCC(C)(C)c4ccc(F)cc4)nn3)ccc21 [[3-amino-5-(6-{[2-(4-fluorophenyl)-2-methylpropyl]amino}pyridazin-3-yl)(1H-indazolyl)]-N,N-dimethylcarboxamide] | B (B=1-10 uM) |
| CC(C)(CNc1ccc(-c2ccc3[nH]nc(NS(C)(=O)=O)c3c2)nn1)c1ccc(F)cc1 [[5-(6-{[2-(4-fluorophenyl)-2-methylpropyl]amino}pyridazin-3-yl)(1H-indazol-3-yl)](methylsulfonyl)amine] | A (A=<1 uM) |
| CC(C)(CNc1ccc(-c2ccc3[nH]nc(CO)c3c2)nn1)c1ccc(F)cc1 [[5-(6-{[2-(4-fluorophenyl)-2-methylpropyl]amino}pyridazin-3-yl)-1H-indazol-3-yl]methan-1-ol] | A (A=<1 uM) |
| CC(C)(CNc1ccc(-c2ccnc(N)c2)nn1)c1ccc(F)cc1 [[6-(2-amino(4-pyridyl))pyridazin-3-yl][2-(4-fluorophenyl)-2-methylpropyl]amine] | B (B=1-10 uM) |
| CC(C)(CNc1ccc(-c2ccc3nc(N)[nH]c3c2)nn1)c1ccc(F)cc1 [[6-(2-aminobenzimidazol-5-yl)pyridazin-3-yl][2-(4-fluorophenyl)-2-methylpropyl]amine] | A (A=<1 uM) |
| CC(C)(CNc1ccc(-c2c[nH]c(N)n2)nn1)c1ccc(F)cc1 [[6-(2-aminoimidazol-4-yl)pyridazin-3-yl][2-(4-fluorophenyl)-2-methylpropyl]amine] | B (B=1-10 uM) |
| Nc1nc(-c2ccc(NCC3(c4ncccc4F)CCC3)nn2)c[nH]1 [[6-(2-aminoimidazol-4-yl)pyridazin-3-yl]{[(3-fluoro(2-pyridyl))cyclobutyl]methyl}amine] | D (D=>20 uM) |
| CC(C)(CNc1ccc(-c2cnc(N)nc2)nn1)c1ccc(F)cc1 [[6-(2-aminopyrimidin-5-yl)pyridazin-3-yl][2-(4-fluorophenyl)-2-methylpropyl]amine] | B (B=1-10 uM) |
| CC(C)(CNc1ccc(-c2ccccc2Cl)nn1)c1ccc(F)cc1 [[6-(2-chlorophenyl)pyridazin-3-yl][2-(4-fluorophenyl)-2-methylpropyl]amine] | A (A=<1 uM) |
| CC(C)(CNc1ccc(-c2ccc3[nH]nc(N)c3c2)nn1)c1ncco1 [[6-(3-amino(1H-indazol-5-yl))pyridazin-3-yl](2-methyl-2-(1,3-oxazol-2-yl)propyl)amine] | D (D=>20 uM) |
| CC(CNc1ccc(-c2ccc3[nH]nc(N)c3c2)nn1)N1CCCCC1 (stereo not shown) [[6-(3-amino(1H-indazol-5-yl))pyridazin-3-yl](2-piperidylpropyl)amine] | D (D=>20 uM) |
| Nc1n[nH]c2ccc(-c3ccc(NCC(F)(F)c4ccc(F)cc4)nn3)cc12 [[6-(3-amino(1H-indazol-5-yl))pyridazin-3-yl][2,2-difluoro-2-(4-fluorophenyl)ethyl]amine] | B (B=1-10 uM) |
| CC(C)(CNc1ccc(-c2ccc3[nH]nc(N)c3c2)nn1)c1ncc(F)cc1F [[6-(3-amino(1H-indazol-5-yl))pyridazin-3-yl][2-(3,5-difluoro(2-pyridyl))-2-methylpropyl]amine] | A (A=<1 uM) |
| CC(C)(CNc1ccc(-c2ccc3[nH]nc(N)c3c2)nn1)c1ncccc1F [[6-(3-amino(1H-indazol-5-yl))pyridazin-3-yl][2-(3-fluoro(2-pyridyl))-2-methylpropyl]amine] | B (B=1-10 uM) |
| COc1cccc(C(C)(C)CNc2ccc(-c3ccc4[nH]nc(N)c4c3)nn2)c1 [[6-(3-amino(1H-indazol-5-yl))pyridazin-3-yl][2-(3-methoxyphenyl)-2-methylpropyl]amine] | A (A=<1 uM) |
| CC(C)(CNc1ccc(-c2ccc3[nH]nc(N)c3c2)nn1)c1ccc(F)cc1 [[6-(3-amino(1H-indazol-5-yl))pyridazin-3-yl][2-(4-fluorophenyl)-2-methylpropyl]amine] | A (A=<1 uM) |
| CC(C)(CNc1ccc(-c2ccc3[nH]nc(N)c3c2)nn1)c1ccc(F)cn1 [[6-(3-amino(1H-indazol-5-yl))pyridazin-3-yl][2-(5-fluoro(2-pyridyl))-2-methylpropyl]amine] | B (B=1-10 uM) |

Same assay, conditions: median AC1.4 class, procedure of Example 39

| Structure (SMILES) | Mean AC1.4 |
| --- | --- |
| CC(C)(CNc1ccc(-c2ccc3[nH]nc(NCCOCc4ccccc4)c3c2)nn1)c1ccc(F)cc1 [[2-(4-fluorophenyl)-2-methylpropyl][6-(3-{[2-(phenylmethoxy)ethyl]amino}(1H-indazol-5-yl))pyridazin-3-yl]amine] | A (A=<1 uM) |
| CN(C)c1n[nH]c2ccc(-c3ccc(NCC(C)(C)c4ccc(F)cc4)nn3)cc12 [[5-(6-{[2-(4-fluorophenyl)-2-methylpropyl]amino}pyridazin-3-yl)(1H-indazol-3-yl)]dimethylamine] | B (B=1-10 uM) |
| Fc1cccnc1C1(CNc2ccc(-c3cccc(F)c3F)nn2)CCC1 [[6-(2,3-difluorophenyl)pyridazin-3-yl]{[(3-fluoro(2-pyridyl))cyclobutyl]methyl}amine] | A (A=<1 uM) |
| Nc1ncccc1-c1ccc(NCC2(c3ncccc3F)CCC2)nn1 [[6-(2-amino(3-pyridyl))pyridazin-3-yl]{[(3-fluoro(2-pyridyl))cyclobutyl]methyl}amine] | B (B=1-10 uM) |
| Nc1nccc(-c2ccc(NCC3(c4ncccc4F)CCC3)nn2)n1 [[6-(2-aminopyrimidin-4-yl)pyridazin-3-yl]{[(3-fluoro(2-pyridyl))cyclobutyl]methyl}amine] | B (B=1-10 uM) |
| Nc1ncc(-c2ccc(NC3(c4ccc(F)cc4)CCC3)nn2)cn1 [[6-(2-aminopyrimidin-5-yl)pyridazin-3-yl][(4-fluorophenyl)cyclobutyl]amine] | B (B=1-10 uM) |
| Nc1ncc(-c2ccc(NCC3(c4ncccc4F)CCC3)nn2)cn1 [[6-(2-aminopyrimidin-5-yl)pyridazin-3-yl]{[(3-fluoro(2-pyridyl))cyclobutyl]methyl}amine] | B (B=1-10 uM) |
| CC(C)(CNc1ccc(-c2cccc(-c3nn[nH]n3)c2)nn1)c1ncccc1F [[6-(3-(2H-1,2,3,4-tetraazol-5-yl)phenyl)pyridazin-3-yl][2-(3-fluoro(2-pyridyl))-2-methylpropyl]amine] | B (B=1-10 uM) |
| Fc1cccnc1[C@]1(CNc2ccc(-c3cccc(-c4nn[nH]n4)c3)nn2)C[C@@H](F)C1 [[6-(3-(2H-1,2,3,4-tetraazol-5-yl)phenyl)pyridazin-3-yl]{[3-fluoro-1-(3-fluoro(2-pyridyl))cyclobutyl]methyl}amine] | A (A=<1 uM) |
| Fc1cccnc1C1(CNc2ccc(-c3cccc(-c4nn[nH]n4)c3)nn2)CCC1 [[6-(3-(2H-1,2,3,4-tetraazol-5-yl)phenyl)pyridazin-3-yl]{[(3-fluoro(2-pyridyl))cyclobutyl]methyl}amine] | A (A=<1 uM) |

Same assay, conditions: median AC1.4 reported as class; procedure of Example 39

| Structure (SMILES) | Mean AC1.4 |
| --- | --- |
| Nc1ncc(-c2ccc(NC[C@]3(c4ncccc4F)C[C@H](F)C3)nn2)cn1 [[6-(2-aminopyrimidin-5-yl)pyridazin-3-yl]{[3-fluoro-1-(3-fluoro(2-pyridyl))cyclobutyl]methyl}amine] | B (B=1-10 uM) |
